Test results from patent US11957759B1, “Rapidly accelerated fibrosarcoma (RAF) degrading compounds and associated methods of use” (Arvinas Operations, Inc., priority 2022, dated 2024).

Tests used:
B-RAF V600E = molecular target: T1, B-RAF V600E (Homo sapiens, UniProt P15056, V600E); assay: Target protein degradation, assay C: T-Rex 293 cells, HA-BRAF_V600E, 384 well format; type: cell-based; conditions: T-Rex 293 HA-BRAF_V600E cells, 24 hours, Examples 83-269; for Dmax: T-REx-293, Assay C
T1 construct: expressed in transfected cells; host or cells: T-Rex 293 cells (Invitrogen #R71007)
Protocol: C. T-Rex 293 Cells (384 Well Format)
(§1) T-Rex 293 cells were purchased from Invitrogen (#R71007), and stably transfected with a pcDNA4/TO_HA-BRAF_V600E construct, using 400 ug Zeocin for selection. V600E cells are plated in DMEM media (Gibco #11965118) containing 10% FBS (Gibco #16000044), 1% penicillin-streptomycin (ThermoFisher #15140122), 1:250 zeocin (Invitrogen #R-25005), and 1 ng/mL doxycycline (Selleckchem #4163) at a density of 7,500 cells/well in 45 μl on PDL coated, black clear bottom 384 well plates (Corning #354663) and incubated at 37° C.+5% CO2 for 24 hours. The following day, PROTAC compounds in a 1:3 11 point dilution are diluted into DMEM media using an Agilent Bravo. 5 ul of PROTACs suspended in DMEM media are added to the cells, with a final assay concentration ranging from 300 nM to 5 pM in 0.5% DMSO. Plates are incubated at 37° C.+5% CO2 for 24 hours. At the end of treatment, media is aspirated, and cells are fixed in 50 uL 4% PFA (EMS #15710) in PBS++(PBS, 1 mM CaCl, 1 mM MgCl) at RT for 15 minutes. Cells are washed 2× with 60 uL PBS++ and permeabilized in 50 uL 1% Triton X-100 (Sigma #93443) in PBS++ for 5 minutes at RT. Cells are washed in PBS++ prior to blocking with 50 uL Licor blocking buffer (Licor #927-60001) for 1 hour at RT. HA-tagged BRAF was stained using 50 uL HA antibody (CST #3724) at 1:1000 in Licor blocking buffer for two hours at RT. Primary is aspirated before adding 50 ul of secondary antibody solution containing 1:1000 Hoechst (ThermoFisher #62249), 1:1000 HCS CellMask Deep Red Stain (ThermoFisher #H32721), and 1:5000 goat anti-rabbit IgG Alexa-Fluor 488 (ThermoFisher #A32731) in PBS++ for 1 hr at RT. Plates are washed 4× with 60 uL PBS++, then sealed with Adhesive Black Light Absorbing Film (VWR #89087-692) and imaged on the ThermoFisher CX7 PRO high content instrument. BRAF intensity is quantified in HCS Studio software (ThermoFisher), using a custom script, exported, analyzed using KNIME, and curve curation is performed in an ELN (Scilligence). Cell toxicity is measured via comparing number of nuclei in PROTAC treated wells to DMSO controls.
(§2) The concentration of an exemplary compound that leads to half maximal degradation (DC50) as well as the maximum degradation observed (Dmax, conventionally expressed as a percentage of control) is shown below in Table 2.

B-RAF G466V = molecular target: T2, B-RAF G466V (Homo sapiens, UniProt P15056, G466V); assay: Target protein degradation, assay D: T-Rex 293 cells, HA-BRAF_G466V, 384 well format; type: cell-based; conditions: T-Rex 293 HA-BRAF_G466V cells, 24 hours, Examples 83-269; for DC50: Assay D; for Dmax: T-REx-293, Assay D
T2 construct: expressed in transfected cells; host or cells: T-Rex 293 cells (Invitrogen #R71007)
Protocol: D. T-Rex 293 Cells (384 Well Format)
as §1, with “pcDNA4/TO_HA-BRAF_G466V” for “pcDNA4/TO_HA-BRAF_V600E”, “G466V” for “V600E”
as §2

T1 sequence (P15056 whole entry V600E): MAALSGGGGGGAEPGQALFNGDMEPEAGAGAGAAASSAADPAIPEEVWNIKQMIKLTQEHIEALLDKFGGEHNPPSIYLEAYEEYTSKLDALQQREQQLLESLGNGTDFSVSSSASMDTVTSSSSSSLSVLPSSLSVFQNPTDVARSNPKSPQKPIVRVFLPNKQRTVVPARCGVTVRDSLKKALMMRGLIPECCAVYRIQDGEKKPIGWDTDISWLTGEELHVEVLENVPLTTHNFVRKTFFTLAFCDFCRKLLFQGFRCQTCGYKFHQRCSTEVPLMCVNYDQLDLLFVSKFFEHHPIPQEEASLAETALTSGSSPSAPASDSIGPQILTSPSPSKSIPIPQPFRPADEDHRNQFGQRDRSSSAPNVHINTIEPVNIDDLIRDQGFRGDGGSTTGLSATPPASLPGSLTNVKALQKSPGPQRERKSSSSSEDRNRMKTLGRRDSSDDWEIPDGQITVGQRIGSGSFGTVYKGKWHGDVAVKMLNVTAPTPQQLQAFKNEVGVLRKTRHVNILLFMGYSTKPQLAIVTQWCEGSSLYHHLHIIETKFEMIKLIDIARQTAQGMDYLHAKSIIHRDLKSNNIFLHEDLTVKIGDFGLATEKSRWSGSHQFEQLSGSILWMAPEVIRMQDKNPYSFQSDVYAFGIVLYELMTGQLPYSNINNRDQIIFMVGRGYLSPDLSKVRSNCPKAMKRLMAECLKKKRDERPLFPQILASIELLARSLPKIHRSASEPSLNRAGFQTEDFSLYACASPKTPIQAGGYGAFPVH
T2 sequence (P15056 whole entry G466V): as the sequence (P15056 whole entry V600E) above, with G466V, E600V counted along it

DC50 (B-RAF V600E; Assay C)	Dmax (B-RAF V600E)	DC50 (B-RAF G466V)	Dmax (B-RAF G466V)	B-RAF V600E DMax (%) (B-RAF V600E; Assay C)	Structure (SMILES)
0.05 to 0.5 µM	35 to 70%	0.001 to 0.01 µM	35 to 70%		Cc1c(N2CCC(CN3CCN(c4ccc(-n5cnc6ccc(Oc7c(F)ccc(NS(=O)(=O)N8CC[C@@H](F)C8)c7C#N)cc6c5=O)cc4)CC3)CC2)ccc2c1CN(C1CCC(=O)NC1=O)C2=O (single isomer, unassigned) [Example 111, (3R)-N-(2-cyano-3-{[3-(4-{4-[(1-{2-[(3R*)-2,6-dioxopiperidin-3-yl]-4-methyl-1-oxo-2,3-dihydro-1H-isoindol-5-yl}piperidin-4-yl)methyl]piperazin-1-yl}phenyl)-4-oxo-3,4-dihydroquinazolin-6-yl]oxy}-4-fluorophenyl)-3-fluoropyrrolidine-1-sulfonamide]
0.005 to 0.05 µM	35 to 70%	0.001 to 0.01 µM	35 to 70%		N#Cc1c(NS(=O)(=O)N2CC[C@@H](F)C2)ccc(F)c1Oc1ccc2ncn(-c3ccc(N4CCN(CC5CCN(c6ccc(C7CCC(=O)NC7=O)cc6F)CC5)CC4)cc3)c(=O)c2c1 (single isomer, unassigned) [Example 112, (3R)-N-(2-cyano-3-{[3-(4-{4-[(1-{4-[(3R*)-2,6-dioxopiperidin-3-yl]-2-fluorophenyl}piperidin-4-yl)methyl]piperazin-1-yl}phenyl)-4-oxo-3,4-dihydroquinazolin-6-yl]oxy}-4-fluorophenyl)-3-fluoropyrrolidine-1-sulfonamide]
0.005 to 0.05 µM	≤ 35%				Cc1cc(N2CCC(CN3CCN(c4ccc(-n5cnc6ccc(Oc7c(F)ccc(NS(=O)(=O)N8CC[C@@H](F)C8)c7C#N)cc6c5=O)cc4)CC3)CC2)c(F)c2c1C(=O)N(C1CCC(=O)NC1=O)C2 (single isomer, unassigned) [Example 120, (3R)-N-(2-cyano-3-{[3-(4-{4-[(1-{2-[(3R*)-2,6-dioxopiperidin-3-yl]-4-fluoro-7-methyl-1-oxo-2,3-dihydro-1H-isoindol-5-yl}piperidin-4-yl)methyl]piperazin-1-yl}phenyl)-4-oxo-3,4-dihydroquinazolin-6-yl]oxy}-4-fluorophenyl)-3-fluoropyrrolidine-1-sulfonamide]
0.05 to 0.5 µM				B (35 < B < 70)	Cc1cc(N2CCC(CN3CCN(c4ccc(-n5cnc6ccc(Oc7c(F)ccc(NS(=O)(=O)N8CC[C@@H](F)C8)c7C#N)cc6c5=O)cc4)CC3)CC2)c(F)c2c1C(=O)N(C1CCC(=O)NC1=O)C2 (single isomer, unassigned) [Example 121, (3R)-N-(2-cyano-3-{[3-(4-{4-[(1-{2-[(3R*)-2,6-dioxopiperidin-3-yl]-4-fluoro-7-methyl-1-oxo-2,3-dihydro-1H-isoindol-5-yl}piperidin-4-yl)methyl]piperazin-1-yl}phenyl)-4-oxo-3,4-dihydroquinazolin-6-yl]oxy}-4-fluorophenyl)-3-fluoropyrrolidine-1-sulfonamide]
0.05 to 0.5 µM	35 to 70%				CCN(C)S(=O)(=O)Nc1ccc(F)c(Oc2ccc3ncn(-c4ccc(N5CCC(CN6CCC(c7ccc8c(c7)CN(C7CCC(=O)NC7=O)C8=O)CC6)CC5)cc4)c(=O)c3c2)c1C#N (centres unmarked) [Example 115, 2-[(3-{4-[4-({4-[2-(2,6-dioxopiperidin-3-yl)-1-oxo-2,3-dihydro-1H-isoindol-5-yl]piperidin-1-yl}methyl)piperidin-1-yl]phenyl}-4-oxo-3,4-dihydroquinazolin-6-yl)oxy]-6-{[ethyl(methyl)sulfamoyl]amino}-3-fluorobenzonitrile]
0.05 to 0.5 µM	≤ 35%				N#Cc1c(NS(=O)(=O)N2CC[C@@H](F)C2)ccc(F)c1Oc1ccc2ncn(-c3ccc(N4CCN(CC5CCN(c6ccc7c(c6)CN(C6CCC(=O)NC6=O)C7=O)CC5)CC4)s3)c(=O)c2c1 (stereo partly drawn) [Example 116, (3R)-N-{2-cyano-3-[(3-{5-[4-({1-[2-(2,6-dioxopiperidin-3-yl)-1-oxo-2,3-dihydro-1H-isoindol-5-yl]piperidin-4-yl}methyl)piperazin-1-yl]thiophen-2-yl}-4-oxo-3,4-dihydroquinazolin-6-yl)oxy]-4-fluorophenyl}-3-fluoropyrrolidine-1-sulfonamide]
0.05 to 0.5 µM	35 to 70%				C[C@H]1CN(CC2CCN(c3ccc4c(c3F)CN([C@H]3CCC(=O)NC3=O)C4=O)CC2)CCN1c1ccc(-n2cnc3ccc(Oc4c(F)ccc(NS(=O)(=O)N5CC[C@@H](F)C5)c4C#N)cc3c2=O)cc1 [Example 117, (3R)-N-{2-cyano-3-[(3-(4-[(2S)-4-[(1-{2-[(3S)-2,6-dioxopiperidin-3-yl]-4-fluoro-1-oxo-2,3-dihydro-1H-isoindol-5-yl}piperidin-4-yl)methyl]-2-methylpiperazin-1-yl]phenyl}-4-oxo-3,4-dihydroquinazolin-6-yl)oxy]-4-fluorophenyl}-3-fluoropyrrolidine-1-sulfonamide]
> 0.5 µM					C[C@H]1CN(CC2CCN(c3ccc4c(c3F)CN([C@@H]3CCC(=O)NC3=O)C4=O)CC2)CCN1c1ccc(-n2cnc3ccc(Oc4c(F)ccc(NS(=O)(=O)N5CC[C@@H](F)C5)c4C#N)cc3c2=O)cc1 [Example 118, (3R)-N-{2-cyano-3-[(3-(4-[(2S)-4-[(1-{2-[(3R)-2,6-dioxopiperidin-3-yl]-4-fluoro-1-oxo-2,3-dihydro-1H-isoindol-5-yl}piperidin-4-yl)methyl]-2-methylpiperazin-1-yl]phenyl}-4-oxo-3,4-dihydroquinazolin-6-yl)oxy]-4-fluorophenyl}-3-fluoropyrrolidine-1-sulfonamide]
> 0.5 µM					N#Cc1c(NS(=O)(=O)N2CC[C@@H](F)C2)ccc(F)c1Oc1ccc2ncn(-c3ccc(N4CCC(CN5CC6(CC(c7ccc8c(c7)C(=O)N(C7CCC(=O)NC7=O)C8=O)C6)C5)CC4)cc3)c(=O)c2c1 (stereo partly drawn) [Example 119, (3R)-N-{2-cyano-3-[(3-{4-[4-({6-[2-(2,6-dioxopiperidin-3-yl)-1,3-dioxo-2,3-dihydro-1H-isoindol-5-yl]-2-azaspiro[3.3]heptan-2-yl}methyl)piperidin-1-yl]phenyl}-4-oxo-3,4-dihydroquinazolin-6-yl)oxy]-4-fluorophenyl}-3-fluoropyrrolidine-1-sulfonamide]
